Data taken from ChEMBL document CHEMBL4308841, “Synthesis, in vitro antiproliferative activity, and kinase inhibitory effects of pyrazole-containing diarylureas and diarylamides” (Eur J Med Chem, 2018).

Key:
RPMI-8226 = assay: Growth inhibition of human RPMI8226 cells assessed as cell growth at 1 uM incubated for 48 hrs by sulforhodamine B assay relative to control; assay type: functional; details: RPMI-8226, 48 h, read-out: Activity
NCI-H522 = assay: Growth inhibition of human NCI-H522 cells assessed as cell growth at 0.1 uM incubated for 48 hrs by sulforhodamine B assay relative to control; assay type: functional; details: NCI-H522, 48 h, read-out: Activity
SK-MEL-5 = assay: Growth inhibition of human SK-MEL-5 cells assessed as cell growth at 0.1 uM incubated for 48 hrs by sulforhodamine B assay relative to control; assay type: functional; details: SK-MEL-5, 48 h, read-out: Activity
NCI/ADR-RES = assay: Growth inhibition of human NCI/ADR-RES cells assessed as cell growth at 1 uM incubated for 48 hrs by sulforhodamine B assay relative to control; assay type: functional; details: read-out: Activity
CCRF-CEM [1] = assay: Growth inhibition of human CCRF-CEM cells assessed as cell growth at 0.1 uM incubated for 48 hrs by sulforhodamine B assay relative to control; assay type: functional; details: read-out: Activity
MDA-MB-468 [2] = assay: Growth inhibition of human MDA-MB-468 cells assessed as cell growth at 1 uM incubated for 48 hrs by sulforhodamine B assay relative to control; assay type: functional; details: MDA-MB-468, 48 h, read-out: Activity
SK-MEL-28 = assay: Growth inhibition of human SK-MEL-28 cells assessed as cell growth at 0.1 uM incubated for 48 hrs by sulforhodamine B assay relative to control; assay type: functional; details: SK-MEL-28, 48 h, read-out: Activity
SW-620 = assay: Growth inhibition of human SW620 cells incubated for 48 hrs by sulforhodamine B assay; assay type: functional, cell-based; details: SW-620, 48 h
MDA-MB-468 [3] = assay: Growth inhibition of human MDA-MB-468 cells incubated for 48 hrs by sulforhodamine B assay; assay type: functional, cell-based; details: MDA-MB-468, 48 h
HCT-15 = assay: Growth inhibition of human HCT15 cells assessed as cell growth at 1 uM incubated for 48 hrs by sulforhodamine B assay relative to control; assay type: functional; details: HCT-15, 48 h, read-out: Activity
MDA-MB-435 = assay: Growth inhibition of human MDA-MB-435 cells assessed as cell growth at 0.1 uM incubated for 48 hrs by sulforhodamine B assay relative to control; assay type: functional; details: MDA-MB-435, 48 h, read-out: Activity
SF-539 = assay: Growth inhibition of human SF539 cells assessed as cell growth at 0.01 uM incubated for 48 hrs by sulforhodamine B assay relative to control; assay type: functional; details: SF-539, 48 h, read-out: Activity
CCRF-CEM [4] = assay: Growth inhibition of human CCRF-CEM cells assessed as cell growth at 1 uM incubated for 48 hrs by sulforhodamine B assay relative to control; assay type: functional; details: read-out: Activity
Malme-3M [5] = assay: Growth inhibition of human MALME-3M cells incubated for 48 hrs by sulforhodamine B assay; assay type: functional, cell-based
NCI-H322M = assay: Growth inhibition of human NCI-H322M cells assessed as cell growth at 100 uM incubated for 48 hrs by sulforhodamine B assay relative to control; assay type: functional; details: read-out: Activity
MDA-MB-231 = assay: Growth inhibition of human MDA-MB-231 cells assessed as cell growth at 0.01 uM incubated for 48 hrs by sulforhodamine B assay relative to control; assay type: functional; details: MDA-MB-231, 48 h, read-out: Activity
SF-268 = assay: Growth inhibition of human SF268 cells assessed as cell growth at 1 uM incubated for 48 hrs by sulforhodamine B assay relative to control; assay type: functional; details: SF-268, 48 h, read-out: Activity
HOP-62 = assay: Growth inhibition of human HOP62 cells assessed as cell growth at 100 uM incubated for 48 hrs by sulforhodamine B assay relative to control; assay type: functional; details: HOP-62, 48 h, read-out: Activity
NCI-H460 = assay: Growth inhibition of human NCI-H460 cells assessed as cell growth at 100 uM incubated for 48 hrs by sulforhodamine B assay relative to control; assay type: functional; details: NCI-H460, 48 h, read-out: Activity
RXF 393 = assay: Growth inhibition of human RXF393 cells assessed as cell growth at 100 uM incubated for 48 hrs by sulforhodamine B assay relative to control; assay type: functional; details: RXF 393, 48 h, read-out: Activity
UACC-257 = assay: Growth inhibition of human UACC257 cells assessed as cell growth at 0.1 uM incubated for 48 hrs by sulforhodamine B assay relative to control; assay type: functional; details: UACC-257, 48 h, read-out: Activity
T47D = assay: Growth inhibition of human T47D cells assessed as cell growth at 100 uM incubated for 48 hrs by sulforhodamine B assay relative to control; assay type: functional; details: read-out: Activity
U-251 = assay: Growth inhibition of human U251 cells assessed as cell growth at 100 uM incubated for 48 hrs by sulforhodamine B assay relative to control; assay type: functional; details: U-251, 48 h, read-out: Activity
CCRF-CEM [6] = assay: Growth inhibition of human CCRF-CEM cells incubated for 48 hrs by sulforhodamine B assay; assay type: functional, cell-based
PC-3 = assay: Growth inhibition of human PC3 cells assessed as cell growth at 0.1 uM incubated for 48 hrs by sulforhodamine B assay relative to control; assay type: functional; details: PC-3, 48 h, read-out: Activity
Malme-3M [7] = assay: Growth inhibition of human MALME-3M cells assessed as cell growth at 0.1 uM incubated for 48 hrs by sulforhodamine B assay relative to control; assay type: functional; details: read-out: Activity
A549 = assay: Growth inhibition of human A549/ATCC cells assessed as cell growth at 0.1 uM incubated for 48 hrs by sulforhodamine B assay relative to control; assay type: functional; details: A549, 48 h, read-out: Activity
M14 = assay: Growth inhibition of human M14 cells assessed as cell growth at 100 uM incubated for 48 hrs by sulforhodamine B assay relative to control; assay type: functional; details: M14, 48 h, read-out: Activity
COLO 205 = assay: Growth inhibition of human COLO205 cells assessed as cell growth at 0.1 uM incubated for 48 hrs by sulforhodamine B assay relative to control; assay type: functional; details: COLO 205, 48 h, read-out: Activity
NCI-H226 = assay: Growth inhibition of human NCI-H226 cells incubated for 48 hrs by sulforhodamine B assay; assay type: functional, cell-based; details: NCI-H226, 48 h
[8] = read-out: LC50 (the source's name)
[9] = read-out: pLC50 (the source's name) (converted)

O=C(Nc1cccc(-n2cc(-c3ccncc3)c(-c3cc(O)cc(Cl)c3)n2)c1)Nc1ccc(Cl)c(Cl)c1
growth at 1 µM (RPMI-8226): 57%
growth at 0.1 µM (NCI-H522): 92%
growth at 0.1 µM (SK-MEL-5): 92%
growth at 1 µM (NCI/ADR-RES): 90%
growth at 0.1 µM (CCRF-CEM [1]): 95%
growth at 1 µM (MDA-MB-468 [2]): 59%
growth at 0.1 µM (SK-MEL-28): 97%
GI50 (SW-620; read-out: GI50): 3.22 µM
LC50 (SW-620; read-out: LC50): > 100 µM
TGI (SW-620; read-out: TGI): 99.7 µM
GI50 (SW-620; read-out: pGI50 (converted)): 3.24 µM
LC50 (SW-620; read-out: pLC50 (converted)): > 100 µM
TGI (SW-620; read-out: pTGI (converted)): 10 µM
IC50 (MDA-MB-468 [3]): 1.71 µM
GI50 (MDA-MB-468 [3]; read-out: GI50): 1.7 µM
CC50 (MDA-MB-468 [3]; [8]): > 100 µM
TGI (MDA-MB-468 [3]; read-out: TGI): 70.9 µM
GI50 (MDA-MB-468 [3]; read-out: pGI50 (converted)): 1.7 µM
CC50 (MDA-MB-468 [3]; [9]): > 100 µM
TGI (MDA-MB-468 [3]; read-out: pTGI (converted)): 7.08 µM
growth at 1 µM (HCT-15): 75%
growth at 0.1 µM (MDA-MB-435): 93%
growth at 0.01 µM (SF-539): 59%
growth at 1 µM (CCRF-CEM [4]): 76%
GI50 (Malme-3M [5]; read-out: GI50): 1 µM
CC50 (Malme-3M [5]; [8]): > 100 µM
TGI (Malme-3M [5]; read-out: TGI): 54 µM
GI50 (Malme-3M [5]; read-out: pGI50 (converted)): 1.78 µM
CC50 (Malme-3M [5]; [9]): > 100 µM
TGI (Malme-3M [5]; read-out: pTGI (converted)): 5.25 µM
growth at 100 µM (NCI-H322M): -24%
growth at 0.01 µM (MDA-MB-231): 94%
growth at 1 µM (SF-268): 89%
growth at 100 µM (HOP-62): -3%
growth at 100 µM (NCI-H460): -48%
growth at 100 µM (RXF 393): -52%
growth at 0.1 µM (UACC-257): 91%
growth at 100 µM (T47D): -39%
growth at 100 µM (U-251): -57%
GI50 (CCRF-CEM [6]; read-out: GI50): 2.12 µM
CC50 (CCRF-CEM [6]; [8]): > 100 µM
GI50 (CCRF-CEM [6]; read-out: pGI50 (converted)): 2.14 µM
CC50 (CCRF-CEM [6]; [9]): > 100 µM
growth at 0.1 µM (PC-3): 90%
growth at 0.1 µM (Malme-3M [7]): 84%
growth at 0.1 µM (A549): 99%
growth at 100 µM (M14): -69%
growth at 0.1 µM (COLO 205): 103%
GI50 (NCI-H226; read-out: GI50): 2.28 µM
LC50 (NCI-H226; read-out: LC50): > 100 µM
TGI (NCI-H226; read-out: TGI): 71.6 µM
GI50 (NCI-H226; read-out: pGI50 (converted)): 2.29 µM
LC50 (NCI-H226; read-out: pLC50 (converted)): > 100 µM
TGI (NCI-H226; read-out: pTGI (converted)): 7.08 µM

O=C(Nc1cccc(-n2cc(-c3ccncc3)c(-c3cc(O)cc(Cl)c3)n2)c1)c1cc(C(F)(F)F)cc(C(F)(F)F)c1
growth at 1 µM (RPMI-8226): 53%
growth at 0.1 µM (NCI-H522): 30%
growth at 0.1 µM (SK-MEL-5): 95%
growth at 1 µM (NCI/ADR-RES): 94%
growth at 0.1 µM (CCRF-CEM [1]): 97%
growth at 1 µM (MDA-MB-468 [2]): 52%
growth at 0.1 µM (SK-MEL-28): 103%
GI50 (SW-620; read-out: GI50): 4.48 µM
LC50 (SW-620; read-out: LC50): > 100 µM
TGI (SW-620; read-out: TGI): > 100 µM
GI50 (SW-620; read-out: pGI50 (converted)): 4.47 µM
LC50 (SW-620; read-out: pLC50 (converted)): > 100 µM
TGI (SW-620; read-out: pTGI (converted)): > 100 µM
IC50 (MDA-MB-468 [3]): 3.1 µM
GI50 (MDA-MB-468 [3]; read-out: GI50): 3.1 µM
CC50 (MDA-MB-468 [3]; [8]): > 100 µM
TGI (MDA-MB-468 [3]; read-out: TGI): > 100 µM
GI50 (MDA-MB-468 [3]; read-out: pGI50 (converted)): 3.09 µM
CC50 (MDA-MB-468 [3]; [9]): > 100 µM
TGI (MDA-MB-468 [3]; read-out: pTGI (converted)): > 100 µM
growth at 1 µM (HCT-15): 79%
growth at 0.1 µM (MDA-MB-435): 95%
growth at 0.01 µM (SF-539): 98%
growth at 1 µM (CCRF-CEM [4]): 56%
GI50 (Malme-3M [5]; read-out: GI50): 3.59 µM
CC50 (Malme-3M [5]; [8]): > 100 µM
TGI (Malme-3M [5]; read-out: TGI): 94.4 µM
GI50 (Malme-3M [5]; read-out: pGI50 (converted)): 3.72 µM
CC50 (Malme-3M [5]; [9]): > 100 µM
TGI (Malme-3M [5]; read-out: pTGI (converted)): 95.5 µM
growth at 100 µM (NCI-H322M): 13%
growth at 0.01 µM (MDA-MB-231): 98%
growth at 1 µM (SF-268): 94%
growth at 100 µM (HOP-62): 14%
growth at 100 µM (NCI-H460): 1%
growth at 100 µM (RXF 393): -50%
growth at 0.1 µM (UACC-257): 98%
growth at 100 µM (U-251): -28%
GI50 (CCRF-CEM [6]; read-out: GI50): 2.58 µM
CC50 (CCRF-CEM [6]; [8]): > 100 µM
TGI (CCRF-CEM [6]; read-out: TGI): > 100 µM
GI50 (CCRF-CEM [6]; read-out: pGI50 (converted)): 2.69 µM
CC50 (CCRF-CEM [6]; [9]): > 100 µM
TGI (CCRF-CEM [6]; read-out: pTGI (converted)): > 100 µM
growth at 0.1 µM (PC-3): 93%
growth at 0.1 µM (Malme-3M [7]): 52%
growth at 0.1 µM (A549): 95%
growth at 100 µM (M14): 5%
growth at 0.1 µM (COLO 205): 102%
GI50 (NCI-H226; read-out: GI50): 1.51 µM
LC50 (NCI-H226; read-out: LC50): > 100 µM
TGI (NCI-H226; read-out: TGI): > 100 µM
GI50 (NCI-H226; read-out: pGI50 (converted)): 16.2 µM
LC50 (NCI-H226; read-out: pLC50 (converted)): > 100 µM
TGI (NCI-H226; read-out: pTGI (converted)): > 100 µM
